{
  "source": "paper PMC5513037",
  "about": "“Examining the influence of specificity ligands and ATP-competitive ligands on the overall effectiveness of bivalent kinase inhibitors” (Proteome Science, 2017)",
  "assay_in_all_cases": "KAM-matrix competition in K562 lysate;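 on 0.001 uM KAM: median log10 fold change of treatment over DMSO control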;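 on 0.01 uM KAM: median log10 fold change of treatment over DMSO control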;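 on 0.1 uM KAM: median log10 fold change of treatment over DMSO control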;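 on 1 uM KAM: median log10 fold change of treatment over DMSO control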;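 on 10 uM KAM: median log10 fold change of treatment over DMSO control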",
  "format_in_all_cases": "binding",
  "key": {"PRKD3": {"target": "T1, PRKD3 (Homo sapiens, UniProt O94806)", "T1 construct": "endogenous in cells; host or cells: K562", "T1 sequence (O94806 1-890)": "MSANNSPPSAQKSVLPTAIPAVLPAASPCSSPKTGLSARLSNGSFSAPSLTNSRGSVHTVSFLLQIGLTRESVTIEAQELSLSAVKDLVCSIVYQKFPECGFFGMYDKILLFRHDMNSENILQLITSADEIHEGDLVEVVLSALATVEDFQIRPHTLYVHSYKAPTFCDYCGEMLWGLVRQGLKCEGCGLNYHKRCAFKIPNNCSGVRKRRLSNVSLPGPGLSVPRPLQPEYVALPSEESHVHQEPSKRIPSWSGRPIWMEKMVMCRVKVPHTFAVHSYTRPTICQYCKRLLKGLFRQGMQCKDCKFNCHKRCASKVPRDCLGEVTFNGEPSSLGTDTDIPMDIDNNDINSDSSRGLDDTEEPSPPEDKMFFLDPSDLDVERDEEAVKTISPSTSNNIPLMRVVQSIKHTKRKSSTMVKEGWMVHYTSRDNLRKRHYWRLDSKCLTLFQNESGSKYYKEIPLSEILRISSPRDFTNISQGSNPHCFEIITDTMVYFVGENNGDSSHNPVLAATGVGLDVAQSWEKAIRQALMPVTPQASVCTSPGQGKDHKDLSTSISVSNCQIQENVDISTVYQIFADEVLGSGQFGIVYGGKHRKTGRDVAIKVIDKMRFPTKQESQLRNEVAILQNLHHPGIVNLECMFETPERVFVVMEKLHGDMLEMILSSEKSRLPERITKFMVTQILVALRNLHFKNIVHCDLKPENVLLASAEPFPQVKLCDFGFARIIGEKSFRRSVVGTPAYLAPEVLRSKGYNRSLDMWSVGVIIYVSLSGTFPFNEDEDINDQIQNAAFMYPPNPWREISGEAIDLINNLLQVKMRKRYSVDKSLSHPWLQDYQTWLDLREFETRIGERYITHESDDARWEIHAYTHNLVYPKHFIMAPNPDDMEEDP", "description": "(§1) Supplement 12953_2017_125_MOESM1_ESM.zip/MS_Supp Info.xlsx, sheet \"KAM\" | column: 10 uM KAM; 1 uM KAM; 0.1 uM KAM; 0.01 uM KAM; 0.001 uM KAM; RB50"}, "PRKDC": {"target": "T2, PRKDC (Homo sapiens, UniProt P78527)", "T2 construct": "endogenous in cells; host or cells: K562", "description": "as §1"}, "MAP2K3": {"target": "T3, MAP2K3 (Homo sapiens, UniProt P46734)", "T3 construct": "endogenous in cells; host or cells: K562 cell lysate", "T3 sequence (P46734 1-347)": "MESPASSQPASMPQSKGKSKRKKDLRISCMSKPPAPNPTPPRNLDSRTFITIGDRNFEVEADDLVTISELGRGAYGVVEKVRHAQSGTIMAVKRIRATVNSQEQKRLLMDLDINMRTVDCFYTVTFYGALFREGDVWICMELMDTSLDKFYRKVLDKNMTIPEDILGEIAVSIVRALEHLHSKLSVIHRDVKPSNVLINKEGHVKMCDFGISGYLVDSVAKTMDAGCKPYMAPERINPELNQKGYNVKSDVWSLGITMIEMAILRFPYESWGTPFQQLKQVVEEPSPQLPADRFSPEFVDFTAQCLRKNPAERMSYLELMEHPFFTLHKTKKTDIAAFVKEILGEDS", "description": "as §1"}, "AURKA": {"target": "T4, AURKA (Homo sapiens, UniProt O14965)", "T4 construct": "endogenous in cells; host or cells: K562", "T4 sequence (O14965 1-403)": "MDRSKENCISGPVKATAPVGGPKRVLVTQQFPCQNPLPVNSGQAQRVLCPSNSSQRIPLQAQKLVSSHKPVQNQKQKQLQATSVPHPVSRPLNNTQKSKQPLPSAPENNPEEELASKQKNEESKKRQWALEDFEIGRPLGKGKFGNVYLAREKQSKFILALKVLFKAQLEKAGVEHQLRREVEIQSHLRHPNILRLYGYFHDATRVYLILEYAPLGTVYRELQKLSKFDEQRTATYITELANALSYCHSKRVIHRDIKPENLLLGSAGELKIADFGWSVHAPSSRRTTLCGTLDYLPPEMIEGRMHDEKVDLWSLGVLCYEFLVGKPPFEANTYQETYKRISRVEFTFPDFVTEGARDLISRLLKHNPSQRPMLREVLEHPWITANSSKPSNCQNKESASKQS", "description": "as §1"}, "DAPK1": {"target": "T5, DAPK1 (Homo sapiens, UniProt P53355)", "T5 construct": "endogenous in cells; host or cells: K562", "T5 sequence (P53355 whole entry)": "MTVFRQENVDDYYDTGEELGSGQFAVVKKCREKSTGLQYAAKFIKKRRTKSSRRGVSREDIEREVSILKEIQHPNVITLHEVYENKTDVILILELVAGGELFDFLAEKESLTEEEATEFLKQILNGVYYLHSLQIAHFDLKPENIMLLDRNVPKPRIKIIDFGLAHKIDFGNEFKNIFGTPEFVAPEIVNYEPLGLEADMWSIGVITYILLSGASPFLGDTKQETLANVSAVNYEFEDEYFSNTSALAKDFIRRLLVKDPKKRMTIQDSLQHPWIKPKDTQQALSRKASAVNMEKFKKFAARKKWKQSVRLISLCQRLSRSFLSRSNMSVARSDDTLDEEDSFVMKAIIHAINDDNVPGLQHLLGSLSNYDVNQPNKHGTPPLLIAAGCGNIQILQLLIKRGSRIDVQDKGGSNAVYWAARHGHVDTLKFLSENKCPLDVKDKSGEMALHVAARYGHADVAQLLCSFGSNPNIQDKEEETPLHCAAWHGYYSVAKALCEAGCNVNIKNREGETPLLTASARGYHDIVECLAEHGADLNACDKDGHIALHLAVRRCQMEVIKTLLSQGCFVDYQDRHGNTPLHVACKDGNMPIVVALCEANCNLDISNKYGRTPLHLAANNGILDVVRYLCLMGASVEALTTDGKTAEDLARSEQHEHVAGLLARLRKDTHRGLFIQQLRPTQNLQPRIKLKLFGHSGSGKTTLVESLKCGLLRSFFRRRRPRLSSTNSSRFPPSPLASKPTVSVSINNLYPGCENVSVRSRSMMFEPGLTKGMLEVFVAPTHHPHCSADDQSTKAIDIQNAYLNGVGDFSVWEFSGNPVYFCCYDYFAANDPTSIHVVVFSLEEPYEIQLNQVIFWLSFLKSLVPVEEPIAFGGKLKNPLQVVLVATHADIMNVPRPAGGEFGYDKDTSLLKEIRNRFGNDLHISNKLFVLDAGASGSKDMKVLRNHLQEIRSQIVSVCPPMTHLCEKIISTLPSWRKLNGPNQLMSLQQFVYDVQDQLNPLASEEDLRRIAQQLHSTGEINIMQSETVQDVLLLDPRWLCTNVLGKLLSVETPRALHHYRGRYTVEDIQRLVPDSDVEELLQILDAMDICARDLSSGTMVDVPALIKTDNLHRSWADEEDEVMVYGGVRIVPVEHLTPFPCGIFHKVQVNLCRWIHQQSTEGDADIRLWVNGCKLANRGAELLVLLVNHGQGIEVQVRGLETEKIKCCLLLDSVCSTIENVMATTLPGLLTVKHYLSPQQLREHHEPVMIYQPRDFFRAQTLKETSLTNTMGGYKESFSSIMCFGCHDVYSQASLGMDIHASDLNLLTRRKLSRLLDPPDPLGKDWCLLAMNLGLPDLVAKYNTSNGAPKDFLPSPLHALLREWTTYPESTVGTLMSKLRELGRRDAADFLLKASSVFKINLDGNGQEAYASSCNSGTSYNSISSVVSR", "description": "as §1"}, "BRD4": {"target": "T6, BRD4 (Homo sapiens, UniProt O60885)", "T6 construct": "endogenous in cells; host or cells: K562", "description": "as §1"}, "MAPKAPK2": {"target": "T7, MAPKAPK2 (Homo sapiens, UniProt P49137)", "T7 construct": "endogenous in cells; host or cells: K562", "T7 sequence (P49137 whole entry)": "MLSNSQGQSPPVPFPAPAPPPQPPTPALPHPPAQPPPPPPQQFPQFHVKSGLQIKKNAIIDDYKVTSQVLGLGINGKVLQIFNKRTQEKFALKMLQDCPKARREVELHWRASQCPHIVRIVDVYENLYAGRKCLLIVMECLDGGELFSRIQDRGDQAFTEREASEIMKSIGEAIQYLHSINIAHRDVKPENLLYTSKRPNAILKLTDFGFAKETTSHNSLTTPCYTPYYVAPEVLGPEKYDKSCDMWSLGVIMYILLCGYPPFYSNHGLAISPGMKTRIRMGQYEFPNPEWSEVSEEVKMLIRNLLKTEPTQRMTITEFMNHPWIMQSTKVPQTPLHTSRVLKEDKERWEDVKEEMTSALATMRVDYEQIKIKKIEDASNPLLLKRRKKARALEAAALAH", "description": "as §1"}, "RPS6KB1": {"target": "T8, RPS6KB1 (Homo sapiens, UniProt P23443)", "T8 construct": "endogenous in cells; host or cells: K562", "T8 sequence (P23443 whole entry)": "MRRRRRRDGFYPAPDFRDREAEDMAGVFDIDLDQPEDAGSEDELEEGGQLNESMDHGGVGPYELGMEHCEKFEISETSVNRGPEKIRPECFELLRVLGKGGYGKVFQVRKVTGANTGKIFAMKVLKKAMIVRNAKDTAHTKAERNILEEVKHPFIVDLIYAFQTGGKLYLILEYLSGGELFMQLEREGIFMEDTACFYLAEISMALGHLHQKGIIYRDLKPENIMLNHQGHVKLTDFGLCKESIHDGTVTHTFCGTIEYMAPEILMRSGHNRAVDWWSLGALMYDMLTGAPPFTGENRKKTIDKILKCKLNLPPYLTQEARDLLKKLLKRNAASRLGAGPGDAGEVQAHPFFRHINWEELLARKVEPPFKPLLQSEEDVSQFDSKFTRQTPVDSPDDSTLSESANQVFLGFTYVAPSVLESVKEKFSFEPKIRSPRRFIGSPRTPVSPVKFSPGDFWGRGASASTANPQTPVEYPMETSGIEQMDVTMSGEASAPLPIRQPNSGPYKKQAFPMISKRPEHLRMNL", "description": "as §1"}, "CDK16": {"target": "T9, CDK16 (Homo sapiens, UniProt Q00536)", "T9 construct": "endogenous in cells; host or cells: K562", "T9 sequence (Q00536 whole entry)": "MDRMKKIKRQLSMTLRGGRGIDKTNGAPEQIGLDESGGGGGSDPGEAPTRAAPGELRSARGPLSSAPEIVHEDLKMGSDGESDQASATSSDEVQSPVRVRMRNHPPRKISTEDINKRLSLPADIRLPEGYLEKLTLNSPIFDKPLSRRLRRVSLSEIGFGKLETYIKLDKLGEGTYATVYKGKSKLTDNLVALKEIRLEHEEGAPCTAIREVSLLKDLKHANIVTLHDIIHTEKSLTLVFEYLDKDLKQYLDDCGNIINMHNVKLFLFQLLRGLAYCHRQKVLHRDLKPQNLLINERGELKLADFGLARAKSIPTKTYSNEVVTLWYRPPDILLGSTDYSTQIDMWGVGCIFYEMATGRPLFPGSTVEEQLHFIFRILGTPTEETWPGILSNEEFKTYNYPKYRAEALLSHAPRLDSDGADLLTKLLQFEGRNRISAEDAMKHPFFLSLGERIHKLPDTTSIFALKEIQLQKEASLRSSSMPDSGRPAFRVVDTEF", "description": "as §1"}, "[1]": {"settings": "read-out: RB50 (the source's name)"}, "[2]": {"settings": "KAM 0.001-10 uM, read-out: RB50 (the source's name)"}},
  "data": [
    {"smiles": "N#CCc1ccc(Nc2nc(NCCCN)cc(Nc3cc(C4CC4)[nH]n3)n2)cc1", "note": "[KAM]", "values": [
      {"measurement": "median Log10 fold change", "setting": "PRKD3; 0.001 uM KAM", "result": -0.02816},
      {"measurement": "median Log10 fold change", "setting": "PRKD3; 0.01 uM KAM", "result": -0.02551},
      {"measurement": "median Log10 fold change", "setting": "PRKD3; 0.1 uM KAM", "result": -0.171},
      {"measurement": "median Log10 fold change", "setting": "PRKD3; 1 uM KAM", "result": -0.366},
      {"measurement": "median Log10 fold change", "setting": "PRKD3; 10 uM KAM", "result": -0.539},
      {"measurement": "IC50", "setting": "PRKD3; [1]", "result": 0.633, "unit": "µM"},
      {"measurement": "IC50", "setting": "PRKDC; [2]", "result": "> 10", "unit": "µM"},
      {"measurement": "0.001 uM KAM", "setting": "PRKDC; relative to 0 uM KAM = 0", "result": -0.0162},
      {"measurement": "0.01 uM KAM", "setting": "PRKDC; relative to 0 uM KAM = 0", "result": -0.0236},
      {"measurement": "0.1 uM KAM", "setting": "PRKDC; relative to 0 uM KAM = 0", "result": -0.1053},
      {"measurement": "1 uM KAM", "setting": "PRKDC; relative to 0 uM KAM = 0", "result": -0.1689},
      {"measurement": "10 uM KAM", "setting": "PRKDC; relative to 0 uM KAM = 0", "result": -0.08641},
      {"measurement": "IC50", "setting": "MAP2K3; [2]", "result": "> 10", "unit": "µM"},
      {"measurement": "0.001 uM KAM", "setting": "MAP2K3; relative to 0 uM KAM = 0", "result": 0.005145},
      {"measurement": "0.01 uM KAM", "setting": "MAP2K3; relative to 0 uM KAM = 0", "result": -0.01205},
      {"measurement": "0.1 uM KAM", "setting": "MAP2K3; relative to 0 uM KAM = 0", "result": -0.0928},
      {"measurement": "1 uM KAM", "setting": "MAP2K3; relative to 0 uM KAM = 0", "result": -0.1584},
      {"measurement": "10 uM KAM", "setting": "MAP2K3; relative to 0 uM KAM = 0", "result": -0.2828},
      {"measurement": "median Log10 fold change", "setting": "AURKA; 0.001 uM KAM", "result": 0.0112},
      {"measurement": "median Log10 fold change", "setting": "AURKA; 0.01 uM KAM", "result": -0.01229},
      {"measurement": "median Log10 fold change", "setting": "AURKA; 0.1 uM KAM", "result": -0.2365},
      {"measurement": "median Log10 fold change", "setting": "AURKA; 1 uM KAM", "result": -0.473},
      {"measurement": "median Log10 fold change", "setting": "AURKA; 10 uM KAM", "result": -0.552},
      {"measurement": "IC50", "setting": "AURKA; [1]", "result": 0.257, "unit": "µM"},
      {"measurement": "IC50", "setting": "DAPK1; [2]", "result": "> 10", "unit": "µM"},
      {"measurement": "0.001 uM KAM", "setting": "DAPK1; relative to 0 uM KAM = 0", "result": -0.04615},
      {"measurement": "0.01 uM KAM", "setting": "DAPK1; relative to 0 uM KAM = 0", "result": 0.02037},
      {"measurement": "0.1 uM KAM", "setting": "DAPK1; relative to 0 uM KAM = 0", "result": -0.07451},
      {"measurement": "1 uM KAM", "setting": "DAPK1; relative to 0 uM KAM = 0", "result": -0.06277},
      {"measurement": "10 uM KAM", "setting": "DAPK1; relative to 0 uM KAM = 0", "result": -0.09328},
      {"measurement": "IC50", "setting": "BRD4; [2]", "result": "> 10", "unit": "µM"},
      {"measurement": "0.001 uM KAM", "setting": "BRD4; relative to 0 uM KAM = 0", "result": -0.02698},
      {"measurement": "0.01 uM KAM", "setting": "BRD4; relative to 0 uM KAM = 0", "result": 0.00122},
      {"measurement": "0.1 uM KAM", "setting": "BRD4; relative to 0 uM KAM = 0", "result": 0.04808},
      {"measurement": "1 uM KAM", "setting": "BRD4; relative to 0 uM KAM = 0", "result": 0.01224},
      {"measurement": "10 uM KAM", "setting": "BRD4; relative to 0 uM KAM = 0", "result": -0.001488},
      {"measurement": "IC50", "setting": "MAPKAPK2; [2]", "result": "> 10", "unit": "µM"},
      {"measurement": "0.001 uM KAM", "setting": "MAPKAPK2; relative to 0 uM KAM = 0", "result": 0.05207},
      {"measurement": "0.01 uM KAM", "setting": "MAPKAPK2; relative to 0 uM KAM = 0", "result": -0.01973},
      {"measurement": "0.1 uM KAM", "setting": "MAPKAPK2; relative to 0 uM KAM = 0", "result": 0.02471},
      {"measurement": "1 uM KAM", "setting": "MAPKAPK2; relative to 0 uM KAM = 0", "result": 0.08157},
      {"measurement": "10 uM KAM", "setting": "MAPKAPK2; relative to 0 uM KAM = 0", "result": 0.02045},
      {"measurement": "IC50", "setting": "RPS6KB1; [2]", "result": "> 10", "unit": "µM"},
      {"measurement": "0.001 uM KAM", "setting": "RPS6KB1; relative to 0 uM KAM = 0", "result": 0.05992},
      {"measurement": "0.01 uM KAM", "setting": "RPS6KB1; relative to 0 uM KAM = 0", "result": 0.07406},
      {"measurement": "0.1 uM KAM", "setting": "RPS6KB1; relative to 0 uM KAM = 0", "result": 0.2008},
      {"measurement": "1 uM KAM", "setting": "RPS6KB1; relative to 0 uM KAM = 0", "result": 0.1222},
      {"measurement": "10 uM KAM", "setting": "RPS6KB1; relative to 0 uM KAM = 0", "result": 0.1654},
      {"measurement": "median Log10 fold change", "setting": "CDK16; 0.001 uM KAM", "result": 0.002002},
      {"measurement": "median Log10 fold change", "setting": "CDK16; 0.01 uM KAM", "result": 0.005918},
      {"measurement": "median Log10 fold change", "setting": "CDK16; 0.1 uM KAM", "result": -0.06683},
      {"measurement": "median Log10 fold change", "setting": "CDK16; 1 uM KAM", "result": -0.3041},
      {"measurement": "median Log10 fold change", "setting": "CDK16; 10 uM KAM", "result": -0.3301},
      {"measurement": "IC50", "setting": "CDK16; [1]", "result": 1.97, "unit": "µM"}
    ]}
  ]
}
